According to paper doi:10.1101/2023.10.03.560722, “Drug Discovery in Low Data Regimes: Leveraging a Computational Pipeline for the Discovery of Novel SARS-CoV-2 Nsp14-MTase Inhibitors” (bioRxiv, 2024):
Like-named read-outs stand apart in the source and are kept apart here.

Columns and labels:
SUV39H1 = target: T1, SUV39H1 (Homo sapiens, UniProt O43463); test: human MTase selectivity panel; type: biochemical
T1 sequence (O43463 1-412): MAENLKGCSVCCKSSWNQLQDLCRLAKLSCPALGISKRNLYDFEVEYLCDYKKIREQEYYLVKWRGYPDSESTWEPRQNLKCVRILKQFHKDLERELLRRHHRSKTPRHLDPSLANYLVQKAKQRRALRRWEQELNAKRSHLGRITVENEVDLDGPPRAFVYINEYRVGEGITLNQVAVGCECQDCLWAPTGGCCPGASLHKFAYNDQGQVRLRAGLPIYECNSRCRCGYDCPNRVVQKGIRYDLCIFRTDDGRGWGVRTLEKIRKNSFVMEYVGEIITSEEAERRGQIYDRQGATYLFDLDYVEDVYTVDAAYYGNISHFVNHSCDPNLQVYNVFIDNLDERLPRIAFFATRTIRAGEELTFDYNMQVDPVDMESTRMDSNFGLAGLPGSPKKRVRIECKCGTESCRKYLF

PRMT6 = PRMT6 (Homo sapiens, UniProt Q96LA8); test: human MTase selectivity panel; type: biochemical
Chain of PRMT6 (Q96LA8 whole entry): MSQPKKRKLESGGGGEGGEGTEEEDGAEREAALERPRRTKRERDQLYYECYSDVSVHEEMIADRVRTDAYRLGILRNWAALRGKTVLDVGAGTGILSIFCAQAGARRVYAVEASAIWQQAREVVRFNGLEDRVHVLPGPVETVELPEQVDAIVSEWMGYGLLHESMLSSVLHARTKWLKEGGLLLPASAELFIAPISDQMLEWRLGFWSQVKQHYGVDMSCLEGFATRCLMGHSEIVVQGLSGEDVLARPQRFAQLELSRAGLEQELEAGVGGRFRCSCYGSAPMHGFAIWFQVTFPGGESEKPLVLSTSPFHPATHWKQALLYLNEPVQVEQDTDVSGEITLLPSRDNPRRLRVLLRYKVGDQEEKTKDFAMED

nsp14 = nsp14 (Severe acute respiratory syndrome coronavirus 2, UniProt P0DTD1); test: surface plasmon resonance (SPR) binding to immobilized full-length biotinylated nsp14; parameters: species or system SARS-CoV-2; details: n = 3
Description: For Surface Plasmon Resonance (SPR), the full-length biotinylated nsp14 was immobilized on the flow cell of a SA sensor chip in 1x HBS-EP buffer, achieving a response of 8000 RU. The assay was performed using the same buffer but with 2% DMSO added. Single-cycle kinetics were employed with a contact time of 60 seconds and a dissociation time of 120 seconds, at a flow rate of 75 µL/min. NSC620333 was tested at a concentration of 10 µM as the highest concentration, and a dilution factor of 0.25 was used to yield five different concentrations.

SETDB1 = SETDB1 (Homo sapiens, UniProt Q15047); test: human MTase selectivity panel; type: biochemical
ASH1L = ASH1L (Homo sapiens, UniProt Q9NR48); test: human MTase selectivity panel; type: biochemical
EZH2 = EZH2 (Homo sapiens, UniProt Q15910); test: human MTase selectivity panel; type: biochemical
Chain of EZH2 (Q15910 whole entry): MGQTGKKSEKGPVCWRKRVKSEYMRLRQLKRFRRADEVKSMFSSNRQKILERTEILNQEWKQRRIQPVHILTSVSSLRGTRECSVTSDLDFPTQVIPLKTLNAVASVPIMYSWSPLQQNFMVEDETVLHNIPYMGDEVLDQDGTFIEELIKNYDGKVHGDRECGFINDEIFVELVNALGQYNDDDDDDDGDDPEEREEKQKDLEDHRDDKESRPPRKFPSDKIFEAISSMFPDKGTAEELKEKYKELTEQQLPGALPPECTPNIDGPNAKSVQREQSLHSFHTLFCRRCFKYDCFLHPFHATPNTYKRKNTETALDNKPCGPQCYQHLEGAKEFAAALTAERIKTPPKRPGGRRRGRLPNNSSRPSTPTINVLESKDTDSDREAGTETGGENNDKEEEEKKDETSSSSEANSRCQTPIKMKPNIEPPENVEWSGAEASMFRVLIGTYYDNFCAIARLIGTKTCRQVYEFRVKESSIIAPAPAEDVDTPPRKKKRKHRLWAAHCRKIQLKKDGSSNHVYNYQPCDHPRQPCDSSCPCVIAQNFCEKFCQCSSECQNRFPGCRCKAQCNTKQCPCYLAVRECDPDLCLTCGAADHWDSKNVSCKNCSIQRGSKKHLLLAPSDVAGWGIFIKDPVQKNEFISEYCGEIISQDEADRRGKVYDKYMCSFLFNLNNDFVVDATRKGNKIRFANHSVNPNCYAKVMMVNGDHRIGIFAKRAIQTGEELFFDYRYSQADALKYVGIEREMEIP
Chain of EZH2 (O75530 whole entry partner): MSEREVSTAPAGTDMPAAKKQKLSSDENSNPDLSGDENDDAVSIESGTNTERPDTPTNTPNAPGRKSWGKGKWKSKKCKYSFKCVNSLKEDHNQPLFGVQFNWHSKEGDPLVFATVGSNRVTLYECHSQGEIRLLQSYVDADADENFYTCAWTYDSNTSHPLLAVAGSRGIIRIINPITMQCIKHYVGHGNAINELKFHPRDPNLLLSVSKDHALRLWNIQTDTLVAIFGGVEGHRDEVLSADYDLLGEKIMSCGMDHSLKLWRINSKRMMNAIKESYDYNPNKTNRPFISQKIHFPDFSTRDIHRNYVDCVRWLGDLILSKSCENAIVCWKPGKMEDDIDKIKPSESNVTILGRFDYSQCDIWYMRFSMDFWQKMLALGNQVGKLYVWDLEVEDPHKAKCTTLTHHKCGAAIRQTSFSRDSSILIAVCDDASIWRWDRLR
Chain of EZH2 (Q15022 whole entry partner): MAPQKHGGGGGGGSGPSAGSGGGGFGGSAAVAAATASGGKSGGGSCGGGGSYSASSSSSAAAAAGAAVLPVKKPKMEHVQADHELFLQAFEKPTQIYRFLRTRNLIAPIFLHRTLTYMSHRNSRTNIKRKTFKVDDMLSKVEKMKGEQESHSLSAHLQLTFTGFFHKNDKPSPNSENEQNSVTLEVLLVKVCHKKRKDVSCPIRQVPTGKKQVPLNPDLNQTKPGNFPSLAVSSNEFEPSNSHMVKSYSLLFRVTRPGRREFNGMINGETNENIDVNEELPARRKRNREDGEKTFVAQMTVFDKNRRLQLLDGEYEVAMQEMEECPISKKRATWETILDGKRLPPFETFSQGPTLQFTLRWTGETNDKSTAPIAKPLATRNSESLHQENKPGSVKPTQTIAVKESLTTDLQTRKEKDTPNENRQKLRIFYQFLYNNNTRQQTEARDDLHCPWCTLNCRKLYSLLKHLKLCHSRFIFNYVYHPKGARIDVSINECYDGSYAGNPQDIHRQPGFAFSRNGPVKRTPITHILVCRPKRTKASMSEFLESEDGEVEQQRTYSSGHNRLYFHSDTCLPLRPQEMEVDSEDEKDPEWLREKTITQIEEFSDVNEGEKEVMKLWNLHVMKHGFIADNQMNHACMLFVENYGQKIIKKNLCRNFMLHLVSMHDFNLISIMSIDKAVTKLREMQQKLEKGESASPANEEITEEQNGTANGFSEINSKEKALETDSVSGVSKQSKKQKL

DOT1L = DOT1L (Homo sapiens, UniProt Q8TEK3); test: human MTase selectivity panel; type: biochemical
Chain of DOT1L (Q8TEK3 whole entry): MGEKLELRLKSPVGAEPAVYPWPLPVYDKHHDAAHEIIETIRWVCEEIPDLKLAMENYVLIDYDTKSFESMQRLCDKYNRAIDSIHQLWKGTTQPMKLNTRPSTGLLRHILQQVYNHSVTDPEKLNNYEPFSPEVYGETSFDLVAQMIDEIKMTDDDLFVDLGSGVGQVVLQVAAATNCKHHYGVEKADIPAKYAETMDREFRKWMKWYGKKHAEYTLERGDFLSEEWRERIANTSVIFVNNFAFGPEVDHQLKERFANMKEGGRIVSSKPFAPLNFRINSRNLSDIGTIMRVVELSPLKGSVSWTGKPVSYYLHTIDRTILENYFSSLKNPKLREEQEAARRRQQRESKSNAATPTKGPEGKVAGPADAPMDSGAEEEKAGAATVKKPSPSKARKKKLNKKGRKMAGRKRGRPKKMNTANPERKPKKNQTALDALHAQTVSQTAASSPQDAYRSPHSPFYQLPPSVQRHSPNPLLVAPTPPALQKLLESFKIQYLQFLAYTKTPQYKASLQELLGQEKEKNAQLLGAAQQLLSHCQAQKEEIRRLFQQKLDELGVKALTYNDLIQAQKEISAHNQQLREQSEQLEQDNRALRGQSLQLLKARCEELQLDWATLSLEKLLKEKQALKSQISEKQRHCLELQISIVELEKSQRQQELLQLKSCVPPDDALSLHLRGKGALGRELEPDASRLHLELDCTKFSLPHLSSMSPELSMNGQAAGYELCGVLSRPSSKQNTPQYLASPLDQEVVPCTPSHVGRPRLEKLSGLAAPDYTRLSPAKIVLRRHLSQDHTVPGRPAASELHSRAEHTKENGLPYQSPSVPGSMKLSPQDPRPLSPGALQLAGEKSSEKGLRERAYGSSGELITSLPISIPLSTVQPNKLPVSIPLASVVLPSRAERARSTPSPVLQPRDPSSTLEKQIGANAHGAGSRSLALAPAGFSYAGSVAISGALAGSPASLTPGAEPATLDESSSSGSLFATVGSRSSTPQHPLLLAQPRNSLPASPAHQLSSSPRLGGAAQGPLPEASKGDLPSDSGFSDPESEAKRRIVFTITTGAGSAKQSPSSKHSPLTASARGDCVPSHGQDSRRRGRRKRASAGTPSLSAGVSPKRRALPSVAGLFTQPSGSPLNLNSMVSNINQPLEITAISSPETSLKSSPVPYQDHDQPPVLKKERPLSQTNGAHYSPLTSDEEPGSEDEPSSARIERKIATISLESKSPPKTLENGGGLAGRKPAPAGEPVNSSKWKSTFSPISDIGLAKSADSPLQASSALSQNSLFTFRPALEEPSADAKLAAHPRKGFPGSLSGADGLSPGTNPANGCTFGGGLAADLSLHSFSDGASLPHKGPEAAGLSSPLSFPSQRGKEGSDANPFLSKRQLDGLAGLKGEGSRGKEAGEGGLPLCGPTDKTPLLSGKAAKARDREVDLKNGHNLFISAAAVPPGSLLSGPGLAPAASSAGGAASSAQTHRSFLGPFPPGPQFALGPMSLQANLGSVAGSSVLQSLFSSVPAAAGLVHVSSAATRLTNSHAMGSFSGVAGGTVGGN

NSD2 = target: T2, NSD2 (Homo sapiens, UniProt O96028); test: human MTase selectivity panel; type: biochemical
T2 sequence (O96028 1-1365): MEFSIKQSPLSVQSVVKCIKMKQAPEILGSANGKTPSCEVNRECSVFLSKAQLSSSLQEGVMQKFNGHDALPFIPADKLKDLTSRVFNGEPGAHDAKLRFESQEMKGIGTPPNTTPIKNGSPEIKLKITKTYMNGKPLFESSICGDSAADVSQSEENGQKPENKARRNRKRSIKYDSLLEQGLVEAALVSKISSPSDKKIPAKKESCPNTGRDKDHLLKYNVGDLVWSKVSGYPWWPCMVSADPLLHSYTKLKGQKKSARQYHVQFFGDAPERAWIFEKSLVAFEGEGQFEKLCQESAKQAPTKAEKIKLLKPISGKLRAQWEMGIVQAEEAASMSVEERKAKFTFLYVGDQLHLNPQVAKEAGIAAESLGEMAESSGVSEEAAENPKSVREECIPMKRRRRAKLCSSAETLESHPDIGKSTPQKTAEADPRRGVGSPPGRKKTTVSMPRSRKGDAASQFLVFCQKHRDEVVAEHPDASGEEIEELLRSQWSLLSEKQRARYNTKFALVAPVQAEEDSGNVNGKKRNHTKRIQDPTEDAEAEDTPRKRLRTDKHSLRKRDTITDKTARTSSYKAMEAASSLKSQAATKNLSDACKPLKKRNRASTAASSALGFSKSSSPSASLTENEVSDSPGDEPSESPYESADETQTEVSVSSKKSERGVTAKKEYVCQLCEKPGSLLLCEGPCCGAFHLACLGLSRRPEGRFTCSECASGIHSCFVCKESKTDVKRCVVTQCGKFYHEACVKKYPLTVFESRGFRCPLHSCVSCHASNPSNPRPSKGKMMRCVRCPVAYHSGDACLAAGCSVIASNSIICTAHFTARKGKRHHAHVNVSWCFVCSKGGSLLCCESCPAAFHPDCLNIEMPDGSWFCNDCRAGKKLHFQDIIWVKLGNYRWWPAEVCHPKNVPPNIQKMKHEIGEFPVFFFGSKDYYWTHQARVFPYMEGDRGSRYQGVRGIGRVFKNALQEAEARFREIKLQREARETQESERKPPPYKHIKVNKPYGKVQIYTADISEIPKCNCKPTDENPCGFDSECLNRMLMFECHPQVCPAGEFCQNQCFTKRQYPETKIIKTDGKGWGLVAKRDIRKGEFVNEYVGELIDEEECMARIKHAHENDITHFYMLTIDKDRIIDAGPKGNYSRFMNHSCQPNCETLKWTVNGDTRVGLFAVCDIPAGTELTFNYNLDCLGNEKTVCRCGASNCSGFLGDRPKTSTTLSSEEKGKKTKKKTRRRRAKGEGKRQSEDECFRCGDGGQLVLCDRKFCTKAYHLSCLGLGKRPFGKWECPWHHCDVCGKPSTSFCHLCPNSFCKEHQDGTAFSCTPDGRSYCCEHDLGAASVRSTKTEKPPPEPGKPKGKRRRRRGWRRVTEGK

[1] = average ± SD, read-out: Activity (%) at 10 µM Average
[2] = read-out: Activity (%) at 10 µM Replicate 1
[3] = read-out: Activity (%) at 10 µM Replicate 2
[4] = read-out: Activity (%) at 10 µM Replicate 3

## Nc1ncnc2c1ncn2[C@@H]1O[C@H](CSCc2ccc(Cl)cc2)[C@@H](O)[C@H]1O [NSC620333]
SUV39H1; [1]
  activity at 10 µM: 96 ± 4%
SUV39H1; [2]
  activity at 10 µM: 99%
SUV39H1; [3]
  activity at 10 µM: 91%
SUV39H1; [4]
  activity at 10 µM: 97%
PRMT6; [1]
  activity at 10 µM: 100 ± 3%
PRMT6; [2]
  activity at 10 µM: 97%
PRMT6; [3]
  activity at 10 µM: 99%
PRMT6; [4]
  activity at 10 µM: 103%
nsp14; SPR single-cycle kinetics, read-out: KD (kinetic fitting)
  Kd: 427 ± 84 nM
nsp14; SPR steady-state 1:1 binding model, read-out: steady-state KD
  Kd: 544 ± 22 nM
SETDB1; [1]
  activity at 10 µM: 103 ± 3%
SETDB1; [2]
  activity at 10 µM: 104%
SETDB1; [3]
  activity at 10 µM: 106%
SETDB1; [4]
  activity at 10 µM: 100%
ASH1L; [1]
  activity at 10 µM: 105 ± 8%
ASH1L; [2]
  activity at 10 µM: 113%
ASH1L; [3]
  activity at 10 µM: 97%
ASH1L; [4]
  activity at 10 µM: 104%
EZH2; [1]
  activity at 10 µM: 96 ± 5%
EZH2; [2]
  activity at 10 µM: 101%
EZH2; [3]
  activity at 10 µM: 90%
EZH2; [4]
  activity at 10 µM: 98%
DOT1L; [1]
  activity at 10 µM: 93 ± 9%
DOT1L; [2]
  activity at 10 µM: 103%
DOT1L; [3]
  activity at 10 µM: 90%
DOT1L; [4]
  activity at 10 µM: 86%
NSD2; [1]
  activity at 10 µM: 92 ± 7%
NSD2; [2]
  activity at 10 µM: 100%
NSD2; [3]
  activity at 10 µM: 86%
NSD2; [4]
  activity at 10 µM: 90%
